Experimental findings from patent publication US9429582B2, “Tyrosine-phosphorylated WBP2, a novel cancer target and biomarker” (National University of Singapore, priority 2010, dated 2016) are described below.

Experiment [1] deals with WBP2-Y192-231E mutant-expressing MCF7. Kind of experiment: Cell proliferation (MTS / cell numbers) of WBP2-Y192-231E mutant-expressing MCF7. Format: cell-based, human. Here is the method: A: Whole cell lysates from vector, WBP2-WT, WBP2-Y192-231E mutant and WBP2-Y192-231F mutant expressing MCF7 or Y192-231E mutant expressing MCF7 with WBP2 knockdown were used for IB analysis with antibodies indicated. B: Vector, WBP2-WT, WBP2-Y192-231E mutant or WBP2-Y192-231F mutant-expressing MCF7 were co-transfected with TOPFlash (top panel) or ERE-Luciferase (bottom panel) reporter construct. For cells co-transfected ERE-luciferase, they were either left alone or stimulated with 50 ng/ml Wnt3a ligand for 16 hrs. TCF/ERα luciferase activities in various conditions were then assayed. **P<0.01, ***P<0.001, Student's t-test (2-tailed). C: Vector or WBP2-Y192-231E mutant-expressing MCF7 were treated with indicated concentrations of Tamoxifen(Tam) and/or FH535. Cell numbers were measured. D: Whole cell lysates from WBP2-Y192-231E mutant-expressing MCF7 treated with 2 μM Tam and/or 15 μM FH5353 were harvested at day 2-4 post-treatment and used for IB analysis with antibodies indicated.
Effect of knockdown of E2F1 and E2F3 on MCF7 cells overexpressing WBP2-Y192-231E. A. MCF7 cells expressing WBP2-Y192-231E were transfected with indicated siRNAs and knockdown efficiency was confirmed using western blotting. B. Cells were co-transfected with indicated siRNAs and E2F reporter plasmid and harvested for luciferase assay after 48 hours. Luciferase readings were normalized against constitutive TK promoter renilla luciferase readings. C. Cells were transfected with indicated siRNAs and BrdU incorporation assay was performed. Percentages of BrdU positive cells relative to control siRNA treated cells were plotted as bar charts. D. Cells were transfected with indicated siRNAs. MTS assay was performed on day 3. Percentages of cell proliferation relative to control siRNA treated cells were plotted as bar charts.
Whole cell lysates from vector, WBP2-WT, WBP2-Y192-231E mutant and WBP2-Y192-231F mutant expressing MCF7 (A) or Y192-231E mutant expressing MCF7 with WBP2 knockdown (B) were used for IB analysis with antibodies indicated. Their expression levels were quantified in three independent experiments and the averages were presented relative to actin. Representative blots (order in lanes from left to right: vector, WBP2, Y192-231E, Y192F) were presented as insets to the bar graphs. **P<0.01, ***P<0.001, Student's t-test (2-tailed) relative to vector. Vector, WBP2-WT, WBP2-Y192-231E mutant or WBP2-Y192-231F mutant-expressing MCF7 were cotransfected with TOPFlash(C) or ERE-Luciferase(D) reporter construct. For cells co-transfected ERE luciferase, they were either left alone or stimulated with 50 ng/ml Wnt3a ligand for 16 hrs. TCF(C)/ER[…](D) luciferase activities in various conditions were then assayed and analyzed in relative to untreated vector control. **P<0.01, ***P<0.001, Student's t-test (2-tailed). E: Vector or WBP2-Y192-231E mutant-expressing MCF7 were treated with indicated concentrations of 2 µM tamoxifen (Tam) and/or 15 µM FH535 for 4 days. Cell numbers were measured daily and compared in relative to vehicle treated vector-expressing cells on Day 0. F: Vector or WBP2-Y192-231E mutant-expressing MCF7 were treated with indicated concentrations (0-50 µM) of FH535 for 2 days. Cell numbers were measured and compared in relative to vehicle-treated cells. Their […] were analyzed statistically with SPSS 13.0. G: Whole cell lysates from WBP2-Y192-231E mutant-expressing MCF7 treated with 2 μM Tam and/or 15 μM FH5353 were harvested at day 2-4 post-treatment and used for IB analysis with antibodies indicated. H: Vector or WBP2-Y192-231E mutant-expressing MCF7 were treated with indicated concentrations of 100 nM fulvestrant and/or 15 µM FH535 for 4 days. Cell numbers were measured on day 2 and day 4 and compared in relative to vehicle-treated control at each day (Top Panel). These treated cells were harvested for IB analysis with antibodies indicated (Bottom Panel). […]

A further experiment has as its system TCF/β-catenin signaling. As to the kind of experiment: TCF reporter activity / β-catenin recruitment in Y192-231E-expressing MCF7. Conditions: preliminary study, data not shown. The format is cell-based, human. Here is the method:
The Dual-Luciferase TM reporter assay system (Promega) was used for sequential measurement of Firefly and Renilla luciferase activities according to manufacturer's instructions. Quantification of luciferase activities were carried out using a luminometer (Sirius).
The Dual-Luciferase TM reporter assay system (Promega) was used for sequential measurement of Firefly and Renilla luciferase activities according to manufacturer's instructions. Quantification of luciferase activities were carried out using a luminometer (Sirius, Berthold-DS Inc, Germany). Briefly, transfected cells in 24-well plate were rinsed once with ice-cold PBS and lysed in 1× Passive Lysis Buffer (PLB) for 15 min at RT. The crude lysate was first incubated with Luciferase Assay Substrate (LAR II) to measure the firefly luciferase activity, followed by incubation with Stop and Glo Substrate to measure the Renilla luciferase activity.
Next, we examined the relative contributions of ERα and Wnt pathway to WBP2-mediated cellular proliferation. […] Even at higher doses of up to 2000 nM, retardation of proliferation by Tamoxifen of Y192-231E-expressing cells remains unremarkable. FH535 is a recently identified small-molecule inhibitor of TCF/β-catenin signaling (31). […] No synergistic effect could be observed when Tamoxifen and FH535 were administered in combination.

On to `Cc1cc([N+](=O)[O-])ccc1NS(=O)(=O)c1cc(Cl)ccc1Cl` [FH535], for which, in experiment [1], the “blocking of phospho-WBP2-mediated cancer cell growth compared with tamoxifen and fulvestrant” value is recorded as “more pronouncedly”. Besides, the “sensitivity of Y192-231E-expressing MCF7 to FH535-mediated growth inhibition compared with vector-expressing MCF7” value in experiment [1] (0-50 μM FH535 for 2 days) is listed as “more sensitive”. Also, the “inhibition of growth / reduction of proliferation” value in experiment [1] (MCF7 cells expressing Y192-231E mutant, day 4, 100 nM fulvestrant or 15 μM FH535) was about 65%. For the same compound, the “growth inhibition, dose dependence” value in experiment [1] (Y192-231E stable transfectant, 0-50 μM FH535 for 2 days) is on record as “dose dependent growth inhibition”. Further, the growth rate result in experiment [1] (Y192-231E-expressing MCF7, FH535 alone (15 μM), to close to vector-expressing MCF7 at day 3) was “significantly reduced”. Besides, the TCF activity reduced in the experiment with TCF/β-catenin signaling (24-hr post-treatment with 15 μM FH535 in Y192-231E-expressing MCF7) came out at 50%. Also, the “recruitment of β-catenin” value with TCF/β-catenin signaling is “inhibits”.
